The source of these data is ChEMBL document CHEMBL1641545 (Bioorg Med Chem Lett, 2011).

A word on the Ki: it is the dissociation constant of the complex between target and ligand, obtained from inhibition or displacement. What is called EC50 is the concentration that produces a half-maximal response. As usually defined, the Emax is the greatest response seen or fitted, relative to the assay's reference.

Each structure is given as a SMILES string.

Assay [1] concerns the target T1, Kappa-type opioid receptor (Homo sapiens, UniProt P41145). Kind of assay: Displacement of [3H]U69593 from kappa opioid receptor expressed in HEK293 cells relative to salvinorin A. The assay is classed as cell-based. The arrangement: concentration or dose not given beside the values. For orientation: Displacement assays read how much labelled ligand stays bound in the presence of the test substance.

Assay [2] concerns the target T2, Delta-type opioid receptor (Homo sapiens, UniProt P41143). In words: Displacement of [3H]DADLE from delta opioid receptor expressed in HEK293 cells relative to DADLE. The arrangement: concentration or dose not given beside the values. The assay is classed as cell-based.
Assay [3] addresses T1, Kappa-type opioid receptor. In words: Displacement of [3H]diprenorphine from kappa opioid receptor expressed in HEK293 cells relative to salvinorin A. The arrangement: concentration or dose not given beside the values. It is filed as cell-based.
Assay [4] has as its target T3, Mu-type opioid receptor (Homo sapiens, UniProt P35372). In words: Displacement of [3H]DAMGO from mu opioid receptor expressed in HEK293 cells relative to DAMGO. The arrangement: concentration or dose not given beside the values. It is filed as cell-based.
For assay [5], the target named is T1, Kappa-type opioid receptor. Kind of assay: Displacement of [3H]U69593 from kappa opioid receptor expressed in HEK293 cells. The assay is classed as cell-based.
In assay [6] the target is T2, Delta-type opioid receptor. Kind of assay: Displacement of [3H]DADLE from delta opioid receptor expressed in HEK293 cells. The assay is classed as cell-based.
Assay [7] concerns the target T1, Kappa-type opioid receptor. Kind of assay: Agonist activity at kappa opioid receptor expressed in HEK293 cells by [35S]GTPgammaS binding assay. The assay is classed as functional, cell-based. A general note: Binding of GTPγS marks nucleotide exchange on a G protein.
Assay [8] deals with T1, Kappa-type opioid receptor. In words: Agonist activity at kappa opioid receptor expressed in HEK293 cells by [35S]GTPgammaS binding assay relative to salvinorin A. The assay is classed as functional, cell-based.
A short description of assay [9]: Selectivity ratio of Ki for mu opioid receptor to Ki for kappa opioid receptor.
Assay [10] addresses T3, Mu-type opioid receptor. In words: Displacement of [3H]DAMGO from mu opioid receptor expressed in HEK293 cells. The assay is classed as cell-based.
Assay [11] can be described thus: Selectivity ratio of Ki for delta opioid receptor to Ki for kappa opioid receptor.

T3 sequence (P35372 whole entry): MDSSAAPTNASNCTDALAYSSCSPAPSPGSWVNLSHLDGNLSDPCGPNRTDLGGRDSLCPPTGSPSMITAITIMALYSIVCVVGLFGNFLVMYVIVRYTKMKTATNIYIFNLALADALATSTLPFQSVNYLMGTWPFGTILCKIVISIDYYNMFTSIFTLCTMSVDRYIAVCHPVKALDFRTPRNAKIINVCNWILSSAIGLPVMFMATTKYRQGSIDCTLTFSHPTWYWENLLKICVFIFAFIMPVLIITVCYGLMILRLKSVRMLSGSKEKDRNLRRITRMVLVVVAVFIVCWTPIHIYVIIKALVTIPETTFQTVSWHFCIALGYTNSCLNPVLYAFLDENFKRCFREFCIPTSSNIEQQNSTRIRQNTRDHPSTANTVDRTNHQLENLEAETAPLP
T2 sequence (P41143 whole entry): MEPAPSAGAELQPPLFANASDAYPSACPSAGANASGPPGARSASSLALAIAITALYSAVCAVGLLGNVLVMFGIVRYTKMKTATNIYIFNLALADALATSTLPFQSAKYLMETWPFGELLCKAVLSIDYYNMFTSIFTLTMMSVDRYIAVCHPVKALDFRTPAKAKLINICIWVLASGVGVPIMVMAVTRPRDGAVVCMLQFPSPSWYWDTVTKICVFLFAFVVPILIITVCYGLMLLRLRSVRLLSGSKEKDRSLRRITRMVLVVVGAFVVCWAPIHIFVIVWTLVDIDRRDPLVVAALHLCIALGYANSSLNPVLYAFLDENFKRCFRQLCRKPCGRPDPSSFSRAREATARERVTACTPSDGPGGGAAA
T1 sequence (P41145 whole entry): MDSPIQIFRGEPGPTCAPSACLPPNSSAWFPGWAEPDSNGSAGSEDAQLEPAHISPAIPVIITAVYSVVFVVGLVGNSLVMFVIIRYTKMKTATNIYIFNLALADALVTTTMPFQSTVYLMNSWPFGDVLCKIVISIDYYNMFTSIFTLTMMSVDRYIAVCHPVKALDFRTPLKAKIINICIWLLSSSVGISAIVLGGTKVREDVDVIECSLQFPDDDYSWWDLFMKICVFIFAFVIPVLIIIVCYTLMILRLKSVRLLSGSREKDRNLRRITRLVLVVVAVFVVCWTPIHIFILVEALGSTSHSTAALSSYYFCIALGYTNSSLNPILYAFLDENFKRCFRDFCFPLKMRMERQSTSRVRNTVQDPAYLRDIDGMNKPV

With `COC(=O)[C@@H]1C[C@H](OC(=O)CN)C(=O)[C@H]2[C@@]1(C)CC[C@H]1C(=O)O[C@H](c3ccoc3)C[C@]21C`, the Activity is 41% in assay [1], 17% in [2], 0% in assay [3] and -5% at Mu-type opioid receptor [4].

With `COC(=O)[C@@H]1C[C@H](OC(=O)CCCNC(=O)OCC2c3ccccc3-c3ccccc32)C(=O)[C@H]2[C@@]1(C)CC[C@H]1C(=O)O[C@H](c3ccoc3)C[C@]21C`, the Activity in assay [1] was 10%; in assay [2], 24%; in [3], 0%; at Mu-type opioid receptor [4], 27%.

As to `COC(=O)[C@@H]1C[C@H](OC(=O)[C@@H](NC(=O)OCC2c3ccccc3-c3ccccc32)C(C)C)C(=O)[C@H]2[C@@]1(C)CC[C@H]1C(=O)O[C@H](c3ccoc3)C[C@]21C`, the Activity amounted to 39% in assay [1], 22% in assay [2], 0% in assay [3] and 15% at Mu-type opioid receptor [4].

`COC(=O)[C@@H]1C[C@H](OC(=O)[C@H](Cc2ccccc2)NC(=O)OCC2c3ccccc3-c3ccccc32)C(=O)[C@H]2[C@@]1(C)CC[C@H]1C(=O)O[C@H](c3ccoc3)C[C@]21C`: the Activity worked out at 0% in assay [1], 3% in assay [2], 34% in assay [3] and 0.5% at Mu-type opioid receptor [4].

In the case of `COC(=O)[C@@H]1C[C@H](OC(=O)CCCN)C(=O)[C@H]2[C@@]1(C)CC[C@H]1C(=O)O[C@H](c3ccoc3)C[C@]21C`, the Activity in assay [1] turned out to be 48%; in assay [2], 28%; in assay [3], 0%; on Mu-type opioid receptor [4] it was 1%.

For `COC(=O)[C@@H]1C[C@H](OC(=O)[C@@H](N)[C@H](C)OC(C)(C)C)C(=O)[C@H]2[C@@]1(C)CC[C@H]1C(=O)O[C@H](c3ccoc3)C[C@]21C`, the Activity in assay [1] came out at 6%; in [2], 11%; in assay [3] it was 0%; on Mu-type opioid receptor [4] it was 2%.

For `COC(=O)[C@@H]1C[C@H](OC(=O)[C@H](C)NC(=O)OCC2c3ccccc3-c3ccccc32)C(=O)[C@H]2[C@@]1(C)CC[C@H]1C(=O)O[C@H](c3ccoc3)C[C@]21C`, the Activity in assay [1] was determined as 21%; in [2], 15%; in assay [3], 0%; on Mu-type opioid receptor [4], 24%.

Consider `Oc1ccc2c3c1O[C@H]1c4[nH]c5ccccc5c4C[C@@]4(O)[C@@H](C2)N(CC2CC2)CC[C@]314`, for which the Activity in [2] is 100%.

`COC(=O)[C@@H]1C[C@H](OC(=O)CNC(=O)OCC2c3ccccc3-c3ccccc32)C(=O)[C@H]2[C@@]1(C)CC[C@H]1C(=O)O[C@H](c3ccoc3)C[C@]21C`: the Activity turned out to be 4% in assay [1], 16% in [2], 10% in assay [3] and 20% on Mu-type opioid receptor [4].

In the case of `COC(=O)[C@@H]1C[C@H](OC(=O)[C@@H](NC(=O)OCC2c3ccccc3-c3ccccc32)[C@H](C)OC(C)(C)C)C(=O)[C@H]2[C@@]1(C)CC[C@H]1C(=O)O[C@H](c3ccoc3)C[C@]21C`, the Activity was found to be 28% in assay [1], 8% in assay [2], 12% in assay [3] and 18% on Mu-type opioid receptor [4].

Regarding `COC(=O)[C@@H]1C[C@H](OC(=O)[C@@H](N)C(C)C)C(=O)[C@H]2[C@@]1(C)CC[C@H]1C(=O)O[C@H](c3ccoc3)C[C@]21C`, the inhibitory constant (Ki) in assay [5] was 0.042 µM; in assay [6], > 10 µM; on Mu-type opioid receptor [10], > 10 µM. For the same molecule, the Activity stood at 103% in assay [1], 48% in assay [2], 91% in [3] and 5% on Mu-type opioid receptor [4]. Also, a half-maximal effect in assay [7] (EC50) was put at 0.213 µM. Also, the Emax in assay [7] was determined as 828%; in assay [8], 118%. The Ratio Ki in [9] and in assay [11] was > 238 each time.

As for `COC(=O)[C@@H]1C[C@H](OC(=O)[C@@H](N)Cc2ccccc2)C(=O)[C@H]2[C@@]1(C)CC[C@H]1C(=O)O[C@H](c3ccoc3)C[C@]21C`, the Activity in assay [1] was 19%; in [2] it was 13%; in assay [3], 0%; at Mu-type opioid receptor [4], -6%.

As for `COC(=O)[C@@H]1C[C@H](OC(=O)[C@H](C)N)C(=O)[C@H]2[C@@]1(C)CC[C@H]1C(=O)O[C@H](c3ccoc3)C[C@]21C`, the Ki in assay [5] is 3.78 µM; in assay [6], > 10 µM; at Mu-type opioid receptor [10], > 10 µM. Moreover, the Activity in assay [1] is 82%; in assay [2], 18%; in assay [3], 0%; at Mu-type opioid receptor [4], -1.6%. The Ratio Ki in assay [9] and in assay [11] was > 2.64 in each case.
